{
  "source": "patent US4596790A",
  "about": "“Peptides for the treatment of hyperglycaemia” (Nyegaard & Co. A/S, priority 1983, dated 1986)",
  "key": {"pancreatic β-cells": {"test_system": "pancreatic β-cells", "experiment": "insulin releasing activity (potentiation of the insulin releasing activity of glucose)", "details": "qualitative ranking among the compounds prepared"}, "[1]": {"details": "reported in the literature; cited from earlier work"}},
  "note": "Non-standard residues stand in square brackets, D forms with d. Residues, ends and D or L forms follow the SMILES beside them. No end group written: not given here. pGlu = O=C1CC[C@@H](C(=O)O)N1",
  "data": [
    {"molecule": "O=C(O)CC[C@H](NC(=O)[C@@H]1CCC(=O)N1)C(=O)N[C@@H](CC(=O)O)C(=O)NCC(=O)O", "note": "[p-Glu-Glu-Asp-Gly, H-L-(PYRO) GLUTAMYL-L-GLUTAMYL-L-ASPARTYL-GLYCINE] (HELM PEPTIDE1{[Glp].E.D.G}$$$$V2.0)", "values": [
      {"measurement": "activity (insulin releasing)", "setting": "pancreatic β-cells", "value": "Especially active"}
    ]},
    {"molecule": "O=C(O)CNC(=O)[C@H](CC(=O)O)NC(=O)[C@H](CC(=O)O)NC(=O)[C@@H]1CCC(=O)N1", "note": "[p-Glu-Asp-Asp-Gly, H-L-(PYRO) GLUTAMYL-L-ASPARTYL-L-ASPARTYL-GLYCINE] (HELM PEPTIDE1{[Glp].D.D.G}$$$$V2.0)", "values": [
      {"measurement": "activity (insulin releasing)", "setting": "pancreatic β-cells", "value": "Especially active"}
    ]},
    {"molecule": "NC(=O)CC[C@H](NC(=O)[C@@H]1CCC(=O)N1)C(=O)N[C@@H](CC(=O)O)C(=O)NCC(=O)O", "note": "[p-Glu-Gln-Asp-Gly, H-L-(PYRO) GLUTAMYL-L-GLUTAMINYL-L-ASPARTYL-GLYCINE] (HELM PEPTIDE1{[Glp].Q.D.G}$$$$V2.0)", "values": [
      {"measurement": "activity (insulin releasing)", "setting": "pancreatic β-cells", "value": "most active"}
    ]},
    {"molecule": "[pGlu]SDG", "values": [
      {"measurement": "hyperglycaemic and hyperinsulinaemic activity", "setting": "[1]", "value": "hyperglycaemic and hyperinsulinaemic activity"}
    ]}
  ]
}
